Measurements reported in PMC12264943, “Identification of New Human P2X7 Antagonists Using Ligand- and Structure-Based Virtual Screening” (Journal of Chemical Information and Modeling, 2025).
“Also recorded” adds a separate entry of the source.

Key:
hP2X7 [1] = target: T1, hP2X7 (Homo sapiens, UniProt Q99572); test: Membrane potential assay with the blue dye (assay optimization); type: cell-based; details: read-out: ATP EC50
T1 construct: expressed in transfected cells; host or cells: HEK-293, stably transfected (gift of E. Adinolfi's group, Ferrara University)
T1 sequence (Q99572 1-595): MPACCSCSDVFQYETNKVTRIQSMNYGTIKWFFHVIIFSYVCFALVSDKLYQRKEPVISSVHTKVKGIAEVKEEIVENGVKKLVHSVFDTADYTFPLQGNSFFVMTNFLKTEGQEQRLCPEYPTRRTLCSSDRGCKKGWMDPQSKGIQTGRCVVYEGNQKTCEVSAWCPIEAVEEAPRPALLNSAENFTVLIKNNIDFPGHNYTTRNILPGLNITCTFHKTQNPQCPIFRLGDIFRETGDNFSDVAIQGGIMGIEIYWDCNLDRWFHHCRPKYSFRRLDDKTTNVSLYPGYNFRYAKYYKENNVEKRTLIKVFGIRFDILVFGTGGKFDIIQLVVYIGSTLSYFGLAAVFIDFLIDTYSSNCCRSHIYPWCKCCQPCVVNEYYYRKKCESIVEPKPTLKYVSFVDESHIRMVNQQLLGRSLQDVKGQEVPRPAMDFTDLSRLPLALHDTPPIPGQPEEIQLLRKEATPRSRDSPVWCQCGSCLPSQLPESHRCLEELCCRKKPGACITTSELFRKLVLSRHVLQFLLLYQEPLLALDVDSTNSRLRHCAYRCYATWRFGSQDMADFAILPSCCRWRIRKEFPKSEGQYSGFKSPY
Excerpt: The use of two or more complementary assays for assessing P2X7 modulator activity has been previously applied to help identify false positives as macropore formation is also linked to P2X2 and P2X4. , As P2X receptors are ion channels, they are probably best studied using electrophysiology techniques such as single-cell patch clamp, but these techniques can be laborious when testing libraries of compounds.

hP2X7 [2] = target: T1, hP2X7; test: Membrane Potential Red (MPR) dye assay, HEK-293 cells stably transfected with hP2X7; type: cell-based; details: 10 μM, 1 mM ATP, hP2X7 HEK-293
Procedure: Astrocytoma 1321 N1 (established by Dr. Gaia Pasqualetto) and HEK-293 (kindly gifted by E. Adinolfi’s group, Ferrara University) both stably transfected with hP2X7, were used to assess the activity of the small molecules selected from the VS. Cells were maintained in DMEM:F12 (PanBiotech) supplemented with 10% FBS, 1% pen-strep, and 150 μg/mL G418 (PanBiotech).
Cells were plated as described for the YO-PRO 1 dye uptake assay. MPR dye (Molecular Devices) was prepared following the manufacturer’s protocol and diluted 1:10 in ECS-LD buffer. After washing with DPBS, cells were incubated with the dye for 30 min at 37 °C. Fluorescence changes (excitation: 525 nm; emission: 560 nm) were recorded using a Clariostar plate reader during ATP-induced membrane depolarization. Baseline fluorescence was recorded for 5 cycles, and ATP was added via an automated injector (10 μL). Membrane depolarization was quantified as the ratio of the maximal fluorescence change over baseline intensity (Δ(F max–F0)/F0)).
4 Evaluation of compound 2 and 9 analogue activity using YO-PRO 1 and MPR assays. The activity of compound 2 (A and B) and 9 (C and D) analogues was evaluated in YO-PRO 1 (A and C) and MPR (B and D) assays. The compounds were tested at 10 μM and preincubated for either 20 (YO-PRO 1) or 30 min (MPR). The baseline was recorded for 5 cycles before ATP treatment (1 mM). Fluorescence was recorded for 25 (YO-PRO 1) or 5 min (MPR). The data were normalized by setting as 100% for the fluorescence measured from hP2X7 HEK-293 cells incubated with vehicle (0.1% DMSO) and treated with 1 mM ATP and 0% for the fluorescence recorded by the cells not treated with ATP. The data shown correspond to three independent biological replicates (3 technical replicates per experiment; error bars represent the SEM from the mean values of each biological replicate (n = 3)). The statistical analysis was performed with one-way Anova using Dunnett’s function (P**** < 0.0001; P*** < 0.0003; P** < 0.002; P* < 0.02).

**Q.** With `Nc1ncnc2c1ncn2[C@@H]1O[C@H](COP(=O)(O)OP(=O)(O)OP(=O)(O)O)[C@@H](O)[C@H]1O` [ATP, reference compound] as the compound, how does the EC50 (hP2X7 [1]) read?
**A.** Its EC50 is 2.05 mM.

**Q.** How did the “activity in MPR assay” value (hP2X7 [2]) turn out when `O=C(CSc1ccccc1C(=O)Nc1ccnn1Cc1cccnc1)Nc1ccc2c(c1)OCO2` [Compound 9] was run?
**A.** Its value is “neither compound 9 nor its analogues significantly affected the membrane depolarization; also recorded: lack of inhibition”.
